ChEMBL document CHEMBL1149699, “Structure-activity relationships of 3,4-dihydro-1H-quinazolin-2-one derivatives as potential CDK5 inhibitors” (Bioorg Med Chem, 2007)

How the values were obtained:
[1] = target: T1, Cyclin-dependent kinase 5/CDK5 activator 1 (Homo sapiens, UniProt Q00535); assay: Inhibition of human CDK5/p25 by HTRF assay; type: protein-complex assay
[2] = target: T1, Cyclin-dependent kinase 5/CDK5 activator 1; assay: Inhibition of human His-tagged p25/CDK5; type: protein-complex assay
[3] = Inhibition of human His-tagged cyclin 2/CDK2 by HTRF assay
[4] = target: Mitogen-activated protein kinase 14 (Homo sapiens, UniProt Q16539); assay: Inhibition of human p38 alpha
[5] = target: Mitogen-activated protein kinase 9 (Homo sapiens, UniProt P45984); assay: Inhibition of human JNK2
[6] = target: Mitogen-activated protein kinase 3 (Homo sapiens, UniProt P27361); assay: Inhibition of human Erk1
[7] = Inhibition of human PKA

Chain of Mitogen-activated protein kinase 14 (Q16539 whole entry): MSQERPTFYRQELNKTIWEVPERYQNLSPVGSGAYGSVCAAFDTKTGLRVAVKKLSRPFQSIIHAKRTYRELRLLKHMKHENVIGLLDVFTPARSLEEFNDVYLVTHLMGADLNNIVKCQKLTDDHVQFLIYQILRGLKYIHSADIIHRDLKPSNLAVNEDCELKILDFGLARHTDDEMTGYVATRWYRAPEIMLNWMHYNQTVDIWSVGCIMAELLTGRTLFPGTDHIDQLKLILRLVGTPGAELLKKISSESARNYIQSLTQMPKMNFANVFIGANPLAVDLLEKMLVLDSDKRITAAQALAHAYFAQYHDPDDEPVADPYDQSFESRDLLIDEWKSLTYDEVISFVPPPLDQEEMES
Chain of Mitogen-activated protein kinase 3 (P27361 whole entry): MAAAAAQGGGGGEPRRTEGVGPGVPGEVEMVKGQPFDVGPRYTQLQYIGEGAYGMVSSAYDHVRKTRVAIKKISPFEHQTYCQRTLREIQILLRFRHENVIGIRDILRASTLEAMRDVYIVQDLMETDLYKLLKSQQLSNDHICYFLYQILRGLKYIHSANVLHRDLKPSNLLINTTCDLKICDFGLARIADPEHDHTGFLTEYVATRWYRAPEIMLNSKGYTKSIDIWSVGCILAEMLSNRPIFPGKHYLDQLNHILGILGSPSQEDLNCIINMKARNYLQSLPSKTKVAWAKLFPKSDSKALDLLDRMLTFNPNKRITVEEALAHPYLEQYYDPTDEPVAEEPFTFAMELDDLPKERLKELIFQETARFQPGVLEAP
T1 sequence (Q00535 whole entry): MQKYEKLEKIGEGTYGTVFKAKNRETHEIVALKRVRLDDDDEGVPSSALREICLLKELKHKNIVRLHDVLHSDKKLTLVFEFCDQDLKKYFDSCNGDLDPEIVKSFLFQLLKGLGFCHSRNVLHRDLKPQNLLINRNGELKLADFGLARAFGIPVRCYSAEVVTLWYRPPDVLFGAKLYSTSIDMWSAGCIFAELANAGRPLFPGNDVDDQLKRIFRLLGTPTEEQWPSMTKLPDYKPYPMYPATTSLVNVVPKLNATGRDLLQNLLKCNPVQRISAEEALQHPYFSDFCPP
T1 sequence (Q15078 whole entry, further chain): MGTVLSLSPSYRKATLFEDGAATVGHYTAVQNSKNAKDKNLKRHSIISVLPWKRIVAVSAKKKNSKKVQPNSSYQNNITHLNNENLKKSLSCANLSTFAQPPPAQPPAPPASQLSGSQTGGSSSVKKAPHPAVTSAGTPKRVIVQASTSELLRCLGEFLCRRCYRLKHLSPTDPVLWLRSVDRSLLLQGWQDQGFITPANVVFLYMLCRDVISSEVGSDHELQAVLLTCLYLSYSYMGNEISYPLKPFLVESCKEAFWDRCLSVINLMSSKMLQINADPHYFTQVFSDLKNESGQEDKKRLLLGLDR
Chain of Mitogen-activated protein kinase 9 (P45984 whole entry): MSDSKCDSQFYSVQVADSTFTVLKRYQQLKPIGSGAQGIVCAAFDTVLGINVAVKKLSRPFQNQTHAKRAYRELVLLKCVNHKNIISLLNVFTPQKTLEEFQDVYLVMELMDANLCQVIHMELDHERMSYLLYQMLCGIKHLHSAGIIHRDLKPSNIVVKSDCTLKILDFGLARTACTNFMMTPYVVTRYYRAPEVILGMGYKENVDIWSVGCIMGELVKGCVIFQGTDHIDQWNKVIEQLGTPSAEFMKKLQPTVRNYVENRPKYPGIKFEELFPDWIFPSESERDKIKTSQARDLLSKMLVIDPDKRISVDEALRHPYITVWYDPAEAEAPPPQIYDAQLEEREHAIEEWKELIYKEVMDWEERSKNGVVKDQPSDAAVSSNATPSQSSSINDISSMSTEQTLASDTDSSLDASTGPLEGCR

Compound `O=C1Nc2cccc(Br)c2CN1c1csc(-c2ccncc2)n1` has an IC50 [1] of 228 nM.

`O=C1Nc2cc(CN3CCOCC3)ccc2CN1c1csc(-c2ccncc2)n1` showed an IC50 [1] of 62 nM, an IC50 [2] of 62 nM and an IC50 [3] of 529 nM. It also gave an IC50 [4] greater than 10000 nM, an IC50 [5] greater than 10000 nM and an IC50 [6] greater than 10000 nM. It also gave an IC50 [7] greater than 10000 nM.

`O=C(Nc1ccccc1)Nc1csc(-c2ccncc2)n1` gave an IC50 [1] of 2990 nM.

`O=C1Nc2ccccc2CN1c1cccc(-c2ccncc2)c1` showed an IC50 [1] greater than 10000 nM.

In the case of `O=C1Nc2cc(F)ccc2CN1c1csc(-c2ccncc2)n1`, the IC50 [1] is reported as 16 nM, the IC50 [2] is reported as 16 nM and the IC50 [3] is reported as 52 nM. It also gave an IC50 [4] greater than 10000 nM, an IC50 [5] greater than 10000 nM and an IC50 [6] greater than 10000 nM. It also gave an IC50 [7] greater than 10000 nM.

`O=C1Nc2ccccc2CN1c1nc(-c2cccnc2)cs1` showed an IC50 [2] of 399 nM.

`O=C1Nc2ccccc2CN1c1nc(-c2ccccn2)cs1` showed an IC50 [2] of 7360 nM.

With `Cc1cccc2c1CN(c1csc(-c3ccncc3)n1)C(=O)N2` the IC50 [1] was 1260 nM.

With `O=C1Nc2ccccc2CN1c1csc(-c2ccncc2)n1` the IC50 [1] was 79 nM, the IC50 [2] was 79 nM and the IC50 [3] was 142 nM. The IC50 [4] was greater than 10000 nM, the IC50 [5] was greater than 10000 nM and the IC50 [6] was greater than 10000 nM. It also gave an IC50 [7] greater than 10000 nM.

`CN1CCN(c2cccc3c2CN(c2csc(-c4ccncc4)n2)C(=O)N3)CC1` showed an IC50 [1] of 829 nM.

For `O=C1Nc2ccc(F)cc2CN1c1csc(-c2ccncc2)n1`, the IC50 [1] was 72 nM.

In the case of `O=C1Nc2ccccc2CN1c1nc(-c2ccncc2)ns1`, the IC50 [1] is reported as 616 nM.

Work on `Cc1ccc2c(c1)CN(c1csc(-c3ccncc3)n1)C(=O)N2` yielded an IC50 [1] of 165 nM.

In the case of `O=c1[nH]c2ccccc2n1-c1csc(-c2ccncc2)n1`, the IC50 [1] is reported as 1160 nM.

Compound `O=C1Nc2ccccc2CN1c1nc(-c2ccncc2)no1` has an IC50 [1] greater than 10000 nM.

In the case of `O=C1Nc2ccccc2CN1c1nc(-c2ccncc2)cs1`, the IC50 [1] is reported as 77 nM and the IC50 [2] is reported as 77 nM.

`O=C1Nc2ccccc2CN1c1ccc(-c2ccncc2)s1` showed an IC50 [1] greater than 10000 nM.

Work on `O=C(Nc1ccccn1)Nc1csc(-c2ccncc2)n1` yielded an IC50 [1] of 192 nM.

For `O=C1Nc2cccc(Cl)c2CN1c1csc(-c2ccncc2)n1`, the IC50 [1] was 332 nM.

In the case of `O=C1Nc2cccc(CN3CCOCC3)c2CN1c1csc(-c2ccncc2)n1`, the IC50 [1] is reported as 284 nM.

Compound `CN1CCN(c2cccc(NC(=O)Nc3csc(-c4ccncc4)n3)n2)CC1` has an IC50 [2] of 15 nM.

For `CN1CCN(c2ccc3c(c2)CN(c2csc(-c4ccncc4)n2)C(=O)N3)CC1`, the IC50 [1] was 1160 nM.

With `O=C1Nc2cccc(F)c2CN1c1csc(-c2ccncc2)n1` the IC50 [1] was 240 nM.

Work on `O=c1[nH]c2ccccc2c(=O)n1-c1csc(-c2ccncc2)n1` yielded an IC50 [1] greater than 10000 nM.

`O=C1Nc2cc(Br)ccc2CN1c1csc(-c2ccncc2)n1` showed an IC50 [1] of 38 nM.

`COc1cccc2c1CN(c1csc(-c3ccncc3)n1)C(=O)N2` gave an IC50 [1] of 362 nM.

`O=C1Nc2cc(-c3ccccc3)ccc2CN1c1csc(-c2ccncc2)n1` showed an IC50 [1] of 113 nM.

In the case of `CCc1cc(-c2nc(N3Cc4ccccc4NC3=O)cs2)ccn1`, the IC50 [2] is reported as 746 nM.
